Key:
[1] = biological target: β2i (Homo sapiens, UniProt P40306); test: IC50 against β2i of human immunoproteasome (Z-VLR-AMC); conditions: read-out: IC50 2i - VLR (β2i); substrate Z-VLR-AMC
Description: (§3) IC50s of all compounds against β5i and β5c (Table 2) and against β1i, β2i, β1c, and β2c (Supplementary Table 1) were determined following reported methods[8].

[2] = test system: CD19+CD38+CD27+ ASCs; test: Survival and apoptosis of differentiated antibody-secreting cells (ASCs) from PBMC, Annexin V/7-AAD; type: cell-based, human
Description: (§1) The immunoproteasome plays important roles in T cell differentiation and proliferation and dendritic cell activation and maturation[14],[20],[24]. However, its role in B cell differentiation is not well understood. […] Differentiated ASCs were then exposed to PKS21221 at indicated concentrations and cell survival was determined with Annexin V and 7-aminoactinomycin D (7-AAD) at three-time points (12-h, 24-h, and 48-h after treatment). […] In addition, the cytotoxicity of PKS21221 to different cell populations in PBMC was examined and compared to the cytotoxicity of bortezomib. PBMCs were incubated with PKS21221 or bortezomib, and the viability was assessed in T cells (CD3^+), B cells (CD19^+), monocytes (CD14^+) and dendritic cells (CD3^−CD19^−CD14^−CD16^−CD11c^+HLA-DR^+), respectively (Supplementary Fig. 13b–e).
PBMCs were cultured with or without IL-2/R848 for 5 days, followed by 12-h incubation with PKS21221 at different concentrations. a Representative flow cytometry plots of cells treated with IL-2 and R848 in the presence and absence of PKS21221. […] Annexin V^+7-AAD^− cells were referred as “Early apoptosis” population, and Annexin V^+7-AAD^+ cells were referred as “Dead” population. d Percentage of early apoptotic ASCs (left) and dead ASCs (right), after 12-h incubation with PKS21221.
Human peripheral blood samples were obtained from five different healthy volunteers (BWH Specimen Bank). Peripheral blood mononuclear cells (PBMCs) were isolated by density gradient centrifugation using Lymphoprep (StemCell Technologies). PBMCs were cultured at 1.5 × 10^6 cells per mL in RPMI 1640 media (Lonza), supplemented with 10% human serum (GemCell) (10% HS-RPMI), recombinant human IL-2 10 ng per mL (or 100 U per ml, BioLegend) and R848 1 µg per mL (Cayman Chemicals) for 5 days, at 37 °C, 5% CO2. PKS21221 in DMSO, or DMSO only for control, was added to the culture media on day 5, and cells were incubated for additional 12, 24, and 48 h.

[3] = test system: CD19− cells; test: Apoptosis and viability of CD19− cells in ASC differentiation culture; type: cell-based
Description: as §1
PBMCs were cultured with or without IL-2/R848 for 5 days, followed by 12-h incubation with PKS21221 at different concentrations. a Representative flow cytometry plots of cells treated with IL-2 and R848 in the presence and absence of PKS21221. […] Annexin V^+7-AAD^− cells were referred as “Early apoptosis” population, and Annexin V^+7-AAD^+ cells were referred as “Dead” population. d Percentage of early apoptotic ASCs (left) and dead ASCs (right), after 12-h incubation with PKS21221. […]

[4] = biological target: β2c (Homo sapiens, UniProt Q99436); test: IC50 against β2c of human constitutive proteasome (Z-VLR-AMC); conditions: read-out: IC50 2c - VLR (β2c); substrate Z-VLR-AMC
Description: as §3

[5] = test system: β5(i+c) in Karpas 1106P cells; test: Intracellular β5(i+c) activity in Karpas 1106P cells, suc-LLVY-luciferin; type: cell-based
Description: To determine if this class of inhibitors is cell penetrable, we treated the B-cell lymphoma line Karpas 1106P[28] (expressing a high proportion of i-20S over c-20S) with PKS21221 before incubation with either (Ac-ANW)2-R110 (a specific substrate of β5i) or suc-LLVY-luciferin (a substrate of β5) (Fig. 4a).
(§2) Fig. 4 Intracellular proteasome inhibition by PKS21221 and its cytotoxicity against transformed cell lines. a Karpas 1106P lymphoma cells (white and black symbols) or HepG2 cells (blue symbols) were treated with PKS21221 for 2 h at the concentrations indicated prior to incubation with substrate (Ac-ANW)2R110 for β5i (Karpas cells) or suc-LLVY-luciferin for β5 (Karpas cells and HepG2 cells). […] Cell viability was determined by CellTiter-glo. Data are means ± SEM of three to four independent experiments

[6] = biological target: human β5c (Homo sapiens, UniProt P20618+P28074); test: IC50 determination against human β5c of c-20S
Description: as §3

[7] = test system: RPMI 8226 cells; test: Cytotoxicity, CellTiter-glo, RPMI 8226; type: cell-based; conditions: 72 h
Description: as §2
We incubated MM.1S, RPMI 8226, Karpas and HepG2 cells with PKS21221 at different concentrations, and determined cell viability after 72 h (Fig. 4b).
We used Karpas 1106P B lymphoma cell line (Cat. No. 06072607, Aldrich)[15],[16],[52], HepG2 (HB-8065, ATCC), MM.1S (Cat. No. CRL-2974, ATCC). Cells were cultured at 37 °C in a humidified air/5% CO2 atmosphere in medium supplemented with 10% fetal bovine serum, except for the medium for Karpas 1106P cells which contained 20% fetal bovine serum, and 100 units per ml penicillin, 100 μg per ml streptomycin in RPMI 1640 medium. Karpas 1106P was used at 80,000 cells per well, MM.1S at 100,000 cells per well, and HepG2 at 12,000 cells per well. […] Viable cells were counted using Cell-titer Glo assay kit. EC50s were calculated using PRISM (Graphpad).

[8] = biological target: β1i (Homo sapiens, UniProt P28065); test: IC50 against β1i of human immunoproteasome (Ac-PAL-AMC); conditions: read-out: IC50 1i - PAL (β1i); substrate Ac-PAL-AMC
Description: as §3

With `Cc1ccc(S(=O)(=O)N[C@@H](CC(=O)NC(C)(C)C)C(=O)NCCNC(=O)c2cc(-c3ccccc3F)ccc2F)cc1` [PKS21221] the IC50 [1] was greater than 50000 nM, the “percentage of viable ASC” value ([2]; 12-h, 24-h, 48-h after treatment) was “decreased with PKS21221 treatment in a dose- and time-dependent manner” and the “ASC percentage in ASC differentiating culture” value ([2]; added for 12 hours on Day 5) was “decreased the percentage of”. The “apoptosis of CD19− cells” value [3] was “no increase”, the “viability of CD19− cells” value [3] was “did not affect viability” and the IC50 [4] was greater than 50000 nM. The IC50 [5] was 118 ± 33 nM, the “Hill coefficient constant, inhibition of β5c” value [6] was ~ 1 and the IC50 ([6]; read-out: IC50 against β5c) was 110 nM. It also gave an EC50 [7] of 66 ± 6 nM and an IC50 [8] greater than 50000 nM.
